Source: patent US20250339409A1, “USES OF PAN BET INHIBITORS” (VYNE THERAPEUTICS INC., priority 2021, published 2025)
Several values for one entry are separate records, joined by “and”; a condition that tells them apart may be missing. Equal entries are not always repeated.

Tested on: anti collagen antibodies induced arthritis (ACAIA)
Test: ACAIA mice: histopathology of hind paws (tarsus);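 also: Mid-sagittal H&E-stained sections of mouse tarsus taken at study end, lesion severity graded from 0 (normal) to 4 (severe)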
Assay type: in vivo, Balb/c mice
Design: key to Histology: Score / Histology: Score, MEAN: 0 = within normal limits, 1 minimal, 2 mild, 3 moderate, 4 severe
Conditions: for Histology: Score, MEAN: group mean; for Histology: Bones / Histology: Cartilage / Histology: Joint space / Histology: Score / Histology: Soft tissue: individual animals
[1] = 1 mg/kg IA (Group 3), L paw (injected)
[2] = 1 mg/kg IA (Group 3), R paw (contralateral)
[3] = 10 mg/kg IA (Group 2), Mean±SEM
[4] = 10 mg/kg IA (Group 2), L paw (injected)
[5] = 10 mg/kg IA (Group 2), R paw (contralateral)
[6] = 1 mg/kg IA (Group 7), L paw (injected)
[7] = 1 mg/kg IA (Group 7), R paw (contralateral)

Description: At the end of the study, the mice are euthanized using pentobarbital sodium injection. Once euthanized, one hind paw of each animal is harvested and collected into vials containing 4% formalin for histology analysis.
The samples are sagittal sections of the right and left murine tarsus. The histology scoring is based on the severity of the lesions, taking into account both the number of infiltrating cells and the extent of cartilage and bone damage. To be classified as severe, a lesion has to show bone and cartilage damage (beyond degeneration for the latter). The scores are 0=within normal limits, 1-minimal, 2-mild, 3-moderate, 4-severe.
Statistics and data evaluation are primarily based on the mean values for body weight, arthritis clinical scoring and paw thickness measurements. Where appropriate, analysis of the data by one-way ANOVA followed by Dunnett's post-test is applied to determine the significance of treatment effects. All data for the histopathological analysis is presented as Mean±SEM. The treatment groups are compared to the Vehicle group (Group 1) or the contralateral hind paw using the Student's T-test. A p-value <0.05 is considered to represent a significant difference.
Histopathological analysis was conducted in accordance with Method B. Tissues from groups 1, 2, 3 and 7 were processed. Following decalcification, the tissues were cut mid-sagitally and were processed and sectioned for H & E staining. The histopathological analysis included an examination of the number of infiltrating cells and the extent of cartilage and bone damage.

With `Cn1cc(-c2cccc(O)c2Oc2ccccc2)c2cc[nH]c2c1=O` [BETi1] the “mean histopathological score, treated left hind paw” value (1 mg/kg IA (Group 3), Mean±SEM) was 2.14±0.55 a.u, the “Histology: Score, MEAN” value [1] was 2.14 and the “Histology: Bones” value [1] was 3.5 and 2 and 0 (3×) and 3 and 4. The “Histology: Cartilage” value [1] was 3.5 and 2 and 0 (3×) and 3 and 4, the “Histology: Joint space” value [1] was 4 (4×) and 0 (3×) and the “Histology: Score” value [1] was 3.5 (3×) and 2.5 and 1 (2×) and 0. For the same compound, the “Histology: Soft tissue” value [1] was 3 (2×) and 2.5 (2×) and 1 (2×) and 0, the “Histology: Score, MEAN” value [2] was 3.57 and the “Histology: Bones” value [2] was 4 (5×) and 0 and 3.5. For the same compound, the “Histology: Cartilage” value [2] was 4 (6×) and 0, the “Histology: Joint space” value [2] was 4 (6×) and 0 and the “Histology: Score” value [2] was 4 (6×) and 1. The “Histology: Soft tissue” value [2] was 4 (3×) and 1 and 3.5 (2×) and 3, the “histopathology findings, treated paws” value (1 mg/kg IA (Group 3L), 3/7 cases) was “moderate to severe lesions with destruction of cartilage and bone” and the “mean histopathological score, contralateral right hind paw” value [3] was 4.00±0.00 a.u. The “mean histopathological score, treated left hind paw” value [3] was 0.33±0.21 a.u, the “Histology: Score, MEAN” value (10 mg/kg IA (Group 2), L paw (injected), **p < 0.01 vs Vehicle Group, ##p < 0.01 vs contralateral (Right) paw) was 0.33**## and the “Histology: Bones” value [4] was 0. For the same compound, the “Histology: Cartilage” value [4] was 0, the “Histology: Joint space” value [4] was 0 and the “Histology: Score” value [4] was 0 (4×) and 1 (2×). For the same compound, the “Histology: Soft tissue” value [4] was 0 (4×) and 1 (2×), the “Histology: Score, MEAN” value [5] was 4.00 and the “Histology: Bones” value [5] was 4. For the same compound, the “Histology: Cartilage” value [5] was 4, the “Histology: Joint space” value [5] was 4 and the “Histology: Score” value [5] was 4. For the same compound, the “Histology: Soft tissue” value [5] was 4 (4×) and 3.5 (2×) and the “histopathology findings, treated paws” value (10 mg/kg IA (group 2L)) was 4/6 were WNL.

`C[C@@H]1C[C@H]2[C@@H]3CCC4=CC(=O)C=C[C@]4(C)[C@@]3(F)[C@@H](O)C[C@]2(C)[C@@]1(O)C(=O)CO` [dexamethasone, Dexamethasone, reference compound] was tested, and the “Histology: Score, MEAN” value [6] was 2.93, the “Histology: Bones” value [6] was 4 (2×) and 0 and 3 (3×) and 2.5 and the “Histology: Cartilage” value [6] was 4 (2×) and 0 and 3 (2×) and 2.5 (2×). For the same compound, the “Histology: Joint space” value [6] was 4 (6×) and 0, the “Histology: Score” value [6] was 4 (2×) and 1 and 3 (3×) and 2.5 and the “Histology: Soft tissue” value [6] was 4 (2×) and 1.5 and 2 (2×) and 3 and 2.5. For the same compound, the “Histology: Score, MEAN” value [7] was 2.29, the “Histology: Bones” value [7] was 0 (3×) and 4 (4×) and the “Histology: Cartilage” value [7] was 0 (3×) and 4 (4×). For the same compound, the “Histology: Joint space” value [7] was 0 (3×) and 4 (4×), the “Histology: Score” value [7] was 0 (3×) and 4 (4×) and the “Histology: Soft tissue” value [7] was 0 (3×) and 4 (4×).
